Laboratory results taken from ChEMBL document CHEMBL1137571 (J Med Chem, 2007).

Key:
[1] = molecular target: T1, Amine oxidase [flavin-containing] A (Homo sapiens, UniProt P21397); experiment: Inhibition of human recombinant MAOA expressed in Pichia pastoris
T1 sequence (P21397 whole entry): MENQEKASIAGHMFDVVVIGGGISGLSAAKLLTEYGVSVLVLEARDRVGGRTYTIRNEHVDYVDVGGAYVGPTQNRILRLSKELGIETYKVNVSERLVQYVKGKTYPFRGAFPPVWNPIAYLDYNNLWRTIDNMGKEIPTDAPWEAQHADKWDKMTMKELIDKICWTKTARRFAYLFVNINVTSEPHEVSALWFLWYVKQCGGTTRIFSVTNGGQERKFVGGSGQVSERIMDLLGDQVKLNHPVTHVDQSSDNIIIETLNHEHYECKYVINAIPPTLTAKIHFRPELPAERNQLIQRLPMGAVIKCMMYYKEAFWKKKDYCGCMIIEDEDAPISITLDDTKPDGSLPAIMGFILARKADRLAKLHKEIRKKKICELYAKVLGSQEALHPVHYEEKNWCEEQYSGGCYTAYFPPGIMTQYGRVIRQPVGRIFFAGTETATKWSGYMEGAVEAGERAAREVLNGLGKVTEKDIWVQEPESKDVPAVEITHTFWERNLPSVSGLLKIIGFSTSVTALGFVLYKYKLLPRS

[2] = molecular target: T2, Amine oxidase [flavin-containing] B (Homo sapiens, UniProt P27338); experiment: Inhibition of human recombinant MAOB expressed in Pichia pastoris
T2 sequence (P27338 whole entry): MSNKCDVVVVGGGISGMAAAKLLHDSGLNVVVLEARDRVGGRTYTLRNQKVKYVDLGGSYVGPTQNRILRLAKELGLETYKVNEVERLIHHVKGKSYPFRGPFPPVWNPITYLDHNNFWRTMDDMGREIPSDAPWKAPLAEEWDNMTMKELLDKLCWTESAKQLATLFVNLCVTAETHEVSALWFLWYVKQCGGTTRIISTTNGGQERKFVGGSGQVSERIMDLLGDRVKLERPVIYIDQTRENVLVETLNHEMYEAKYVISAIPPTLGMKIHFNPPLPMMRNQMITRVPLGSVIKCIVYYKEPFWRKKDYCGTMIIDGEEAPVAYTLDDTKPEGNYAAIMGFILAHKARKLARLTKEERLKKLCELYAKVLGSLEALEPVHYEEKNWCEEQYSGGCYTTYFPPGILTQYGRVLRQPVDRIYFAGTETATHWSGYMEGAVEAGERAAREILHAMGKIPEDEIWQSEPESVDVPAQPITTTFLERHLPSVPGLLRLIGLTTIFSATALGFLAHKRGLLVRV

O=Cc1cc(=O)oc2cc(OCc3cccc(Cl)c3)ccc12
Ki [1]: 11 µM | Ki [2]: 0.4 µM

CNCc1cc(=O)oc2cc(OCc3cccc(Cl)c3)ccc12
Ki [1]: 15.7 µM | Ki [2]: 0.1 µM
